# Values quoted from earlier work as cited in patent publication US8642630B2, “Endogeneous repair factor production accelerators” (Ono Pharmaceutical Co., Ltd., priority 2002, dated 2014).
# Structures can show the parent of a compound that is named as a salt.
# Test system: vascular endothelial cells
# Conditions: cited from earlier work
smiles,measurement,setting,value
"CC#CCC(C)[C@H](O)/C=C/[C@@H]1[C@H]2c3cccc(CCCC(=O)O)c3O[C@H]2C[C@H]1O (mixture of isomers) [Beraprost, (±)-(1R,2R,3aS,8bS)-2,3,3a,8b-terahydro-2-hydroxy-1-[(E)-(3S,4RS)-3-hydroxy-4-methyl-1-octen-6-ynyl]-1H-cyclopenta[b]benzofuran-5-butanoic acid sodium salt]","endothelial cell growth action, in words",in vitro,shows endothelial cell growth action
same,"HGF production, in words",vascular endothelial cells in vitro,increases HGF production in vascular endothelial cells in vitro
